This note sets out measurements from US8889378B2, “Cytochrome C synthesis inhibitors” (priority 2006, dated 2014).

What all share (type): cell-based
Test [1] concerns system I cytochrome c biogenesis. Put plainly: Metalloprotoporphyrin IX addition, E. coli Δccm with pRGK333 (system I), pRGK332 and pHPEX2. The conditions noted are these: for level of heme on c4:6×His: system I, up to 100 μM. Here is the method:
(§1) Overnight cultures of an E. coli Δccm strain (or E. coli ΔccmΔhemA) harboring either pRGK333 (system I) or pRGK348 (system II-chuA), pRGK332 (cytochrome c4:6×His), and pHPEX2 (Varnado and Goodwin, 2004) were diluted into fresh LB broth (containing the appropriate antibiotics and 8 μM hemin for the E. coli ΔccmΔhemA strain) and incubated with aeration at 37° C. until the OD600 was approximately 0.5. […] Arabinose (0.2%) was added after one hour and incubation continued for an additional three hours. Cells were harvested and soluble protein was extracted using B-PER (Feissner et al., 2006). Cytochrome c4:6×His was purified from 300 μg of total protein and 20 μL was subjected to SDS-PAGE and transferred to nitrocellulose. Prior to heme stain and c4 immunoblot, the nitrocellulose blots were screened for fluorescence on an LAS-1000plus Luminescent Image Analyzer CCD camera system (Fujifilm; Tokyo, Japan).
(§2) Heme stains were performed as described (Feissner et al., 2003) using SuperSignal Femto chemiluminescent substrate (Pierce). Heme stain quantitation used LOLITA II (Low Light Test Array; raytestUSA; Wilmington, N.C.) for standardization of light intensity detection on an LAS1000plus Luminescent Image Analyzer CCD camera system. For Western blotting, extracts were first separated by 12% or 15% SDS-PAGE and electroblotted onto Hybond-C nitrocellulose membranes (Amersham). Protein A peroxidase (Sigma-Aldrich) was used as the secondary label. Detection used the SuperSignal West Femto ECL detection system (Pierce). Chemiluminescence from heme stains and Western blots were detected using an LAS-1000plus Luminescent Image Analyzer CCD camera system (Fujifilm). Protein concentrations were determined using the BCA assay (Pierce) using BSA as a standard. The reduced (10 mM sodium dithionite) and oxidized (10 mM ammonia persulphate) absorption spectra were obtained as previously described (Goldman et al., 1996) using Ni^2+ affinity-purified holocytochrome c4:His. Protein concentrations were determined with the BCA assay kit (Pierce) using BSA as a standard.
ZnPPIX (and SnPPIX), when present with 8 μM heme, may compete with heme for ChuA-dependent transport into the cell. Using an E. coli Δccm strain (RK103) that has endogenous heme production, it was tested whether ZnPPIX (and SnPPIX) caused a reduction in holocytochrome c4 levels detectable by heme stain. When E. coli Δccm with pRGK333 (system I), pRGK332, and pHPEX2 were treated with ZnPPIX, a decrease in holocytochrome c4:6×His was detected as the concentration of ZnPPIX was increased (FIG. 16A left panel, lanes 1-5).
The three other metal protoporphyrins, SnPPIX, MnPPIX, and CoPPIX, were also tested in the E. coli Δccm background with system I or II. […]

The subject of test [2] is system II cytochrome c biogenesis (H. pylori CcsBA). The test can be described thus: Metalloprotoporphyrin IX addition, E. coli Δccm with pRGK348 (system II-chuA) and pRGK332. The conditions noted are these: for level of heme on c4:6×His: system II, up to 100 μM. Here is the method: as §1
as §2, with “Protein A peroxidase (Sigma-Aldrich) was used as the secondary label. Detection used the SuperSignal West Femto ECL detection system (Pierce).” left out, “The reduced (10 mM sodium dithionite) and oxidized (10 mM ammonia persulphate) absorption spectra were obtained as previously described (Goldman et al., 1996) using Ni^2+ affinity-purified holocytochrome c4:His.” left out
ZnPPIX (and SnPPIX), when present with 8 μM heme, may compete with heme for ChuA-dependent transport into the cell. […] When E. coli Δccm with pRGK333 (system I), pRGK332, and pHPEX2 were treated with ZnPPIX, a decrease in holocytochrome c4:6×His was detected as the concentration of ZnPPIX was increased (FIG. 16A left panel, lanes 1-5). […]

For test [3], the system named is system I cytochrome c biogenesis. The test can be described thus: Metalloprotoporphyrin IX addition, E. coli ΔccmΔhemA with pRGK333 (system I), pRGK332, pHPEX2 and 8 μM heme. Conditions: metalloporphyrin 8, 12.5 or 25 μM with 8 μM heme. The procedure: Overnight cultures of an E. coli Δccm strain (or E. coli ΔccmΔhemA) harboring either pRGK333 (system I) or pRGK348 (system II-chuA), pRGK332 (cytochrome c4:6×His), and pHPEX2 (Varnado and Goodwin, 2004) were diluted into fresh LB broth (containing the appropriate antibiotics and 8 μM hemin for the E. coli ΔccmΔhemA strain) and incubated with aeration at 37° C. until the OD600 was approximately 0.5. The mid-log phase cultures were divided into 5 mL aliquots to which IPTG (1 mM) and a metalloprotoporphyrin IX (Zn (II), Sn (IV), Co (III), or Mn (III); 0 μM to 25 μM) were added. Arabinose (0.2%) was added after one hour and incubation continued for an additional three hours. Cells were harvested and soluble protein was extracted using B-PER (Feissner et al., 2006). Cytochrome c4:6×His was purified from 300 μg of total protein and 20 μL was subjected to SDS-PAGE and transferred to nitrocellulose. Prior to heme stain and c4 immunoblot, the nitrocellulose blots were screened for fluorescence on an LAS-1000plus Luminescent Image Analyzer CCD camera system (Fujifilm; Tokyo, Japan).
as §2
The chemical properties of iron may not be uniquely critical for its attachment to apocytochrome c during cytochromes c biogenesis. To test whether any of the cytochromes c biogenesis systems can incorporate other metal porphyrins, four metalloporphyrins were chosen to screen for incorporation into the into the CXXCH motif of a c-type cytochrome: ZnPPIX, SnPPIX, MnPPIX, and CoPPIX. These four metalloporphyrins were tested to determine whether heme can be replaced by other metalloporphyrins in the c-type cytochrome (c4:6×His) reporter. Cultures of E. coli ΔccmΔhemA containing pRGK333 (system I), pRGK332 (c4:6×His), and pHPEX2 were grown overnight in 300 μM ALA and subcultured into fresh LB medium containing 8 μM heme and grown to an OD600 of 0.5. IPTG and metalloporphyrin (8 μM, 12.5 μM, or 25 μM) were then added and growth continued for one hour. Arabinose was added to 0.2% to induce the synthesis of the c4:6×His and growth continued for three more hours before cells were harvested. […] As expected, heme was detected on c4:6×His when either 8 μM or 25 μM heme alone was added (FIG. 15 lanes 1 and 2, respectively).

In the case of `C=Cc1c(C)c2cc3[nH]c(cc4nc(cc5nc(cc1[nH]2)C(C)=C5CCC(=O)[O-])C(CCC(=O)[O-])=C4C)c(C)c3C=C.[Co+2]` [CoPPIX, cobalt (III) protoporphyrin IX], the “level of heme on c4:6×His” value in test [1] and in test [2] was “no decrease” each time. Besides, in test [3], the “effect on the level of detectable heme on c4:6×His (holocytochrome c4)” value (“effect on the level of detectable heme” below) is “neither CoPPIX nor MnPPIX had any affect”.

`C=CC1=C(C)c2cc3[n-]c(cc4[n-]c(cc5nc(cc1n2)C(C)=C5C=C)c(C)c4CCC(=O)[O-])c(CCC(=O)[O-])c3C.[H+].[H+].[Mn+2]` [MnPPIX, manganese (III) protoporphyrin IX]: the “level of heme on c4:6×His” value in test [1] and in test [2] was “no decrease” each time. For the same molecule, the “effect on the level of detectable heme” value in test [3] is listed as “neither CoPPIX nor MnPPIX had any affect”.

Regarding `C=Cc1c2[n-]c(c1C)/C=c1\[n-]/c(c(C)c1C=C)=C\c1[n-]c(c(CCC(=O)O)c1C)C=c1[n-]/c(c(C)c1CCC(=O)O)=C\2.[Sn+4]` [SnPPIX, tin (IV) protoporphyrin IX], the IC50 in test [1] (holocytochrome c4:6×His, heme stain, read-out: concentration required for 50% inhibition of system I) is approximately 65 µM; in test [2] (holocytochrome c4:6×His, heme stain, read-out: concentration required for 50% inhibition of system II), approximately 18 µM. Further, in test [3], the “effect on the level of detectable heme” value is listed as “reduced the level of detectable heme”.
